The results in this text go back to ChEMBL document CHEMBL1128045, “Antifungal lipopeptides: Structure-activity relationships of 3-hydroxyglutamine-modified pneumocandin B0 derivatives” (Bioorg Med Chem Lett, 1995).

≈ marks a conversion by molar mass, not a printed value. Numbered stars: 1 amine (or outer) side, 2 acyl side, 3 side chain; on linkers, the order of the positions; unused ones are H or OH. Bridge positions count the residues as written; N and C are the ends. Square brackets hold non-standard residues; d marks the D form. Peptide text beside a SMILES is read from it. * marks the point of attachment. Orn(4R-OH,5R-OH) = O=C([C@H](C[C@@H](O)[C@@H](O)N[*:3])N[*:1])[*:2]; hTyr(3S-OH,4S-OH) = N[C@H](C(=O)O)[C@H](O)[C@@H](O)c1ccc(O)cc1; Orn(4R-OH) = O=C([C@H](C[C@@H](O)CN[*:3])N[*:1])[*:2]; X10 = N#CCN(CC#N)CC[C@@H](O)[C@H](N[*:1])C(=O)[*:2]; hTyr(3R-OH) = N[C@H](C(=O)O)[C@H](O)Cc1ccc(O)cc1; X2 = O=C(O)C[C@@H](O)[C@H](N[*:1])C(=O)[*:2]; X7 = CN(C)CC[C@@H](O)[C@H](N[*:1])C(=O)[*:2]; Gln(3R-OH) = NC(=O)C[C@@H](O)[C@H](N)C(=O)O; Pro(3S-OH) = O=C(O)[C@H]1NCC[C@@H]1O; Hyp = O=C(O)[C@@H]1C[C@@H](O)CN1; X1 = CCC(C)CC(C)CCCCCCCCC(=O)*

For one test, the system named is Candida parapsilosis. Description: In vitro Fungicidal activity (MFC) against Candida parapsilosis (MY 1010). Type of test: functional. Particulars: Lodderomyces parapsilosis.
Test [1] in a line: In vivo anti-Candida activity was determined in a mouse model of disseminated candidiasis (TOKA). Type of test: functional.
A further test concerns the target Beta-1,3-glucan synthase (Candida albicans, UniProt O13428). Kind of test: Tested for inhibition of Beta-1,3-glucan synthase using a crude membrane of Candida albicans (MY 1208).
A further test relates to Candida albicans. Kind of test: In vitro Fungicidal activity (MFC) against Candida albicans (MY 1055). Type of test: functional.

Sequence of Beta-1,3-glucan synthase (O13428 whole entry): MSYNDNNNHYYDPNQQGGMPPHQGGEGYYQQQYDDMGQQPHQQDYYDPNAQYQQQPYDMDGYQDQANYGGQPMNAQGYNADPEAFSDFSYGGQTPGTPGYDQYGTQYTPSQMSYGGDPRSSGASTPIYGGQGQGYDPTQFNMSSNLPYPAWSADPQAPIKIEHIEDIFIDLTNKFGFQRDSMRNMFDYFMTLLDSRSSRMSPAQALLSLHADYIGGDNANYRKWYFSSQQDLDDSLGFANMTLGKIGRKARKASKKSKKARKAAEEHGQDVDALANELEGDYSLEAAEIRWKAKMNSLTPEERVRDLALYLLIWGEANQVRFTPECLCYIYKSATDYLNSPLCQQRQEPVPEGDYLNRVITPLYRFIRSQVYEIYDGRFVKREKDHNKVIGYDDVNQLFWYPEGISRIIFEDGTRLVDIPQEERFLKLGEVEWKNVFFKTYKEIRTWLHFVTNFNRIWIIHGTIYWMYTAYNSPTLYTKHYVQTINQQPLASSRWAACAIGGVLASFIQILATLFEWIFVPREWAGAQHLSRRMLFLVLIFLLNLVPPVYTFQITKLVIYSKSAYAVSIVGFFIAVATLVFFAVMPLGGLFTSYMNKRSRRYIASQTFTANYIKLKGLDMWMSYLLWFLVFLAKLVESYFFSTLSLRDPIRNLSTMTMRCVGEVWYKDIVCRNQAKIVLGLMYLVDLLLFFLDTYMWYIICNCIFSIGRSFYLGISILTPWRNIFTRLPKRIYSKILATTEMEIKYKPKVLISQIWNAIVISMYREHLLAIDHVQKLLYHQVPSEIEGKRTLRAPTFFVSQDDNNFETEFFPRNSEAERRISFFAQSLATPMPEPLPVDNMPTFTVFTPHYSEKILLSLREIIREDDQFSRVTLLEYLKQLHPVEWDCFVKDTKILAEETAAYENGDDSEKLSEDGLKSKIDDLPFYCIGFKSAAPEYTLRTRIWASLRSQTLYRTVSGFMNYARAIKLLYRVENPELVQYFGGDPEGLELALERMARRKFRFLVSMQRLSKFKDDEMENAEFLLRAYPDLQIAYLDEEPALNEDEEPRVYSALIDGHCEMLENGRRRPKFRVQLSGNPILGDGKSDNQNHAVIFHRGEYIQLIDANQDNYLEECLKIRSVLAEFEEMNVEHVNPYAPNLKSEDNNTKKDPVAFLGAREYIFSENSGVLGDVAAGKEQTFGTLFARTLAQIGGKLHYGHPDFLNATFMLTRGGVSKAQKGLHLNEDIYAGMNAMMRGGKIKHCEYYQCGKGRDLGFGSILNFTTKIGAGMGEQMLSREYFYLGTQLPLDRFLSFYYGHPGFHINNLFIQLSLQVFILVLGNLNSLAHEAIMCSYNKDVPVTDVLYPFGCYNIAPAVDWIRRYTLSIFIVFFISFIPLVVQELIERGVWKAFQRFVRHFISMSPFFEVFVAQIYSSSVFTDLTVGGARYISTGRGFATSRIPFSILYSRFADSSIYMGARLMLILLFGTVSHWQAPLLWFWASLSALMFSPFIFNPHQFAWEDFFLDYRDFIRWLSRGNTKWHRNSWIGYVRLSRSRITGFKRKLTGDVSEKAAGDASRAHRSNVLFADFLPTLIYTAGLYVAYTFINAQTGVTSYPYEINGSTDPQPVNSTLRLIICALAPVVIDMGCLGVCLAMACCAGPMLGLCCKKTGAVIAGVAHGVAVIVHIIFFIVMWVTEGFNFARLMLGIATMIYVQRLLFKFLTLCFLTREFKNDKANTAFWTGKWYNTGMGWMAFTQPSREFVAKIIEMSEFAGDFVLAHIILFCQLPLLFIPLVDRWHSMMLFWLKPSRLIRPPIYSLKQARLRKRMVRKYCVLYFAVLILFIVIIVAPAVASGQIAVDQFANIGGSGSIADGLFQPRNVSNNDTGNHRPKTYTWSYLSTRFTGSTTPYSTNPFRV

`CCC(C)CC(C)CCCCCCCCC(=O)N[C@H]1C[C@@H](O)[C@@H](O)NC(=O)[C@@H]2[C@@H](O)CCN2C(=O)[C@H]([C@H](O)CCN(CC#N)CC#N)NC(=O)[C@H]([C@H](O)[C@@H](O)c2ccc(O)cc2)NC(=O)[C@@H]2C[C@@H](O)CN2C(=O)[C@H]([C@@H](C)O)NC1=O` (stereo partly drawn) (X1-[Orn(4R-OH,5R-OH)]T[Hyp][hTyr(3S-OH,4S-OH)][X10][Pro(3S-OH)]; lactam 1-C): the results for the minimal fungicidal concentration (MFC) against Candida parapsilosis and with Candida albicans were 8 µg/mL (≈ 7.08 µM) and 4 µg/mL (≈ 3.54 µM), respectively. Also, in test [1], the ED99.9 was above 1.5 mg/kg. The IC50 on Beta-1,3-glucan synthase is above 0.2 µM.

Turning to `CCC(C)CC(C)CCCCCCCCC(=O)N[C@H]1C[C@@H](O)CNC(=O)[C@@H]2[C@@H](O)CCN2C(=O)[C@H]([C@H](O)CC(N)=O)NC(=O)[C@H]([C@H](O)Cc2ccc(O)cc2)NC(=O)[C@@H]2C[C@@H](O)CN2C(=O)[C@H]([C@@H](C)O)NC1=O` (stereo partly drawn) (X1-[Orn(4R-OH)]T[Hyp][hTyr(3R-OH)][Gln(3R-OH)][Pro(3S-OH)]; lactam 1-C), the MFC turned out to be 2 µg/mL (≈ 1.94 µM) against Candida parapsilosis and 0.25 µg/mL (≈ 0.242 µM) with Candida albicans. The same molecule came in with an ED99.9 in test [1] above 6 mg/kg. Further, on Beta-1,3-glucan synthase, the IC50 came to 0.07 µM.

`CCC(C)CC(C)CCCCCCCCC(=O)N[C@H]1C[C@@H](O)[C@@H](O)NC(=O)[C@@H]2[C@@H](O)CCN2C(=O)[C@H]([C@H](O)CCN(C)C)NC(=O)[C@H]([C@H](O)[C@@H](O)c2ccc(O)cc2)NC(=O)[C@@H]2C[C@@H](O)CN2C(=O)[C@H]([C@@H](C)O)NC1=O` (stereo partly drawn) (X1-[Orn(4R-OH,5R-OH)]T[Hyp][hTyr(3S-OH,4S-OH)][X7][Pro(3S-OH)]; lactam 1-C): the MFC against Candida parapsilosis was found to be 2 µg/mL (≈ 1.85 µM); against Candida albicans, 1 µg/mL (≈ 0.927 µM). The ED99.9 in test [1] was 1.5 mg/kg. On Beta-1,3-glucan synthase, half-maximal inhibition (IC50) was put at 0.005 µM.

For the molecule `CCC(C)CC(C)CCCCCCCCC(=O)N[C@H]1C[C@@H](O)CNC(=O)[C@@H]2[C@@H](O)CCN2C(=O)[C@H]([C@H](O)CC(=O)O)NC(=O)[C@H]([C@H](O)Cc2ccc(O)cc2)NC(=O)[C@@H]2C[C@@H](O)CN2C(=O)[C@H]([C@@H](C)O)NC1=O` (stereo partly drawn) (X1-[Orn(4R-OH)]T[Hyp][hTyr(3R-OH)][X2][Pro(3S-OH)]; lactam 1-C), the values for the MFC in the test on Candida parapsilosis and against Candida albicans were 8 µg/mL (≈ 7.74 µM) and 0.25 µg/mL (≈ 0.242 µM), respectively. The ED99.9 in test [1] is above 6 mg/kg. The molecule further displayed an IC50 against Beta-1,3-glucan synthase of 0.4 µM.
